Read-outs that look alike come from different tables or passages of the source. Where no end group is shown, it is not given here.
What was measured:
[1] = system: E.coli; conditions: cited from earlier work
[2] = system: S.aureus; conditions: cited from earlier work
[3] = system: Bacilius subtilis; conditions: cited from earlier work
[4] = system: P.aeruginosa; conditions: cited from earlier work
[5] = system: gram-negative bacteria, mostly E.coli and P. aeruginosa; conditions: range stated jointly; ref Table 5.0 ([28], [30]–[32]); cited from earlier work
[6] = system: sheep erythrocytes; experiment: Hemolysis assay; format: cell-based; conditions: sheep erythrocytes in PBS, 37°C 18–24 hours, absorbance 567 nm
[7] = system: Fungus; conditions: cited from earlier work
[8] = system: R. solani Khun; conditions: against R. solani Khun; ref [34]; cited from earlier work

Sapecin
MIC values E.coli ([1]; ref [36]): >78.0 µg/mL | MIC values S.aureus ([2]; ref [36]): 5.0 µg/mL | MIC values Bacilius subtilis ([3]; ref [36]): 20 to 39 µg/mL

Cecropin P1
MIC values E.coli ([1]; ref [32]): 0.12 to 4 µg/mL | MIC values P.aeruginosa ([4]; ref [32]): 4 to 64 µg/mL | MIC range against different strains of gram-negative bacteria [5]: 2 to 20 µg/mL

Cecropin B (KWKVFKKIEKMGRNIRNGIVKAGPAIAVLGEAKAL; ends and bridges not checked; UniProt P01508 27-61, looked up)
MIC values E.coli ([1]; ref [28]): 2.5 µg/mL | MIC values E.coli ([1]; ref [30]): 2 µg/mL | MIC values E.coli ([1]; ref [31]): 16 µg/mL | MIC values S.aureus ([2]; ref [31]): >128 µg/mL | MIC values P.aeruginosa ([4]; ref [28]): 2.5 µg/mL | MIC values P.aeruginosa ([4]; ref [30]): >100 µg/mL | MIC range against different strains of gram-negative bacteria [5]: 2 to 20 µg/mL

CC[C@H](C)[C@H](NC(=O)CN)C(=O)NCC(=O)N[C@@H](C)C(=O)N[C@H](C(=O)N[C@@H](CC(C)C)C(=O)N[C@@H](CCCCN)C(=O)N[C@H](C(=O)N[C@@H](CC(C)C)C(=O)N[C@H](C(=O)N[C@H](C(=O)NCC(=O)N[C@@H](CC(C)C)C(=O)N1CCC[C@H]1C(=O)N[C@@H](C)C(=O)N[C@@H](CC(C)C)C(=O)N[C@H](C(=O)N[C@@H](CO)C(=O)N[C@@H](Cc1c[nH]c2ccccc12)C(=O)N[C@H](C(=O)N[C@@H](CCCCN)C(=O)N[C@@H](CCCNC(=N)N)C(=O)N[C@@H](CCCCN)C(=O)N[C@@H](CCCNC(=N)N)C(=O)N[C@@H](CCC(N)=O)C(=O)N[C@@H](CCC(N)=O)C(N)=O)[C@@H](C)CC)[C@@H](C)CC)[C@@H](C)O)[C@@H](C)O)C(C)C)C(C)C [Melittin]
concentration at which RBCs are lysed [6]: ≥ 12500 ng/mL

Cecropin A (KWKLFKKIEKVGQNIRDGIIKAGPAVAVVGQATQIAK; ends and bridges not checked; UniProt P01507 27-63, looked up)
MIC values E.coli ([1]; ref [28]): 2.5 µg/mL | MIC values P.aeruginosa ([4]; ref [28]): 2.5 µg/mL | MIC range against different strains of gram-negative bacteria [5]: 2 to 20 µg/mL

Bactrocerin-1
MIC values E.coli ([1]; ref [37]): >232.5 µg/mL | MIC values S.aureus ([2]; ref [37]): 6.5 µg/mL | MIC values Bacilius subtilis ([3]; ref [37]): 13.0 µg/mL | MIC values Fungus ([7]; ref [37]): 26.0 to 104.7 µg/mL

Oh-defensin
MIC values E.coli ([1]; ref [39]): 1.3 µg/mL | MIC values S.aureus ([2]; ref [39]): 1.25 µg/mL | MIC values Fungus ([7]; ref [39]): 1.3 µg/mL

Galleria defensin
MIC values Fungus ([7]; ref [38]): 14.7 to 29.5 µg/mL

Trx-stomoxynZH1
MIC values E.coli ([1]; ref [34]): 15 to 30 µg/mL | MIC values S.aureus ([2]; ref [34]): 27 to 54 µg/mL | MIC values Fungus [8]: > 98 against R. solani Khun μg/ml

— publication PMC5913751 (Peptides, 2018)
